Reference: patent US12329762B2, “Pharmaceutical preparation for improving absorption and postprandial hypoglycemic action of insulin” (Eli Lilly and Company, priority 2015, dated 2025)

Tests used:
[1] = 8-hour euglycemic clamp, plasma lispro (pharmacokinetic profile) after sc lispro ± iloprost; type: in vivo, human; details: OT2D subjects with A1c>8%, sc lispro 10 or 30 U with vs without 1 nmol iloprost
Text: Euglycemic clamp. Subjects were admitted to the Sherbrooke University Hospital Clinical Research Center (CRC) at 8 PM the evening prior to each study. An i.v. antecubital cannula was installed to allow venous sampling for immediate whole blood glucose level measurements by a glucose analyzer (FreeStlyle Lite Glucometer, Abbott Diabetes Care Inc.) at 30-min intervals until glycemic target is reached and at 2-hour intervals thereafter. A second contralateral cannula was installed for continuous i.v. administration of regular insulin and glucose, as needed, and plasma glucose has been brought progressively into the normal target range of 5-7 mmol/L overnight and then kept at this level. Experiments started around 8 AM. Patients have been kept fasting (drinking water permitted) during the entire 8-hour clamp study. […] Plasma glucose levels were monitored every 5 min for the first 4 hours and at 10-min intervals thereafter. […] Subjects were allowed to leave when glucose levels were stabilised over 6 mmol/L. Plasma lispro was measured by an ultra-specific radioimmunoassay (Linco Research Inc.) Detection limit is 18 pmol/L, intra-assay CV is 2.5% in our hands (Gagnon-Auger M, et al. Diabetes Care 2010;33(12):2502-7). […]
The fractional plasmatic lispro AUCs were calculated by the trapezoidal method. […]

[2] = 8-hour euglycemic clamp, glucose infusion rate (pharmacodynamic profile) after sc lispro ± iloprost; type: in vivo, human; details: OT2D subjects with A1c>8%, sc lispro 10 or 30 U with vs without 1 nmol iloprost
Text: Euglycemic clamp. Subjects were admitted to the Sherbrooke University Hospital Clinical Research Center (CRC) at 8 PM the evening prior to each study. An i.v. antecubital cannula was installed to allow venous sampling for immediate whole blood glucose level measurements by a glucose analyzer ([…] Glucometer, Abbott Diabetes Care Inc.) at 30-min intervals until glycemic target is reached and at 2-hour intervals thereafter. A second contralateral cannula was installed for continuous i.v. administration of regular insulin and glucose, as needed, and plasma glucose has been brought progressively into the normal target range of 5-7 mmol/L overnight and then kept at this level. Experiments started around 8 AM. Patients have been kept fasting (drinking water permitted) during the entire 8-hour clamp study. […] Plasma glucose levels were monitored every 5 min for the first 4 hours and at 10-min intervals thereafter. […] Subjects were allowed to leave when glucose levels were stabilised over 6 mmol/L. Plasma lispro was measured by an ultra-specific radioimmunoassay (Linco Research Inc.) Detection limit is 18 pmol/L, intra-assay CV is 2.5% in our hands (Gagnon-Auger M, et al. Diabetes Care 2010;33(12):2502-7). […] The fractional plasmatic lispro AUCs were calculated by the trapezoidal method. […]

With `CC#CCC(C)[C@H](O)/C=C/[C@@H]1[C@H]2C/C(=C/CCCC(=O)O)C[C@H]2C[C@H]1O` (stereo partly shown) [iloprost] the “maximal plasma lispro concentrations” value ([1]; FIG. 5) was “rapidely increased”, the “lispro absorption (fractional AUCs of plasmatic lispro, 10 to 40 min)” value ([1]; FIG. 7) was “accelerated” and the “maximal glucose infusion rates” value ([2]; FIG. 8) was “rapidely increased”. The “hypoglycemic effect (early total glucose infusion, 30 to 60 min)” value ([2]; FIG. 9) was “accelerated”.
